# What was measured:
# BMP-2 promoter = assay: BMP2 promoter assay (luciferase reporter); type: cell-based, murine; conditions: summary of Table 1
# RANK-L = assay: Production/release of RANK-L protein (ELISA, IL-1b stimulated MG-63 cells); type: cell-based; conditions: Homo sapiens, MG-63, 1 μg/ml
# Description: Weigh between 150 to 250 mg of each ingredient into a 15 ml conial bottomed tube. […] For solvent control, mix 1.5 ml DMSO, 0.9 ml ethanol, and 0.6 ml water. Vortex thoroughly. Sonicate for 10 minute in water bath, room temperature. Vortex thoroughly again. Dilute ingredient stocks in fresh phenol red-free media. Human osteosarcoma cell line, MG-63 (ATCC# CRL-1427), is maintained in phenol-red containing MEM (as recommended by ATCC) at 37° C. and 5% CO2. Twenty-four hours prior to experimentation, 3×10^5 cells are seeded in 12-well plates in phenol-red free MEM. Spent medium is removed from wells and MG-63 cells (ATCC # CRL-1427) are pretreated with 1, 0.1, 0.01 μg/ml of each test ingredient or 30 ng/ml TGF-beta (+ control) for 4 hours at 37° C., 5% CO2. Stock solution of TGF-beta is 30 μg/ml (from R&D Systems, cat# 100-B-001). After pretreatment incubation period, […] IL-1b (Calbiochem (catalog # 407615), and stock solution at 10 μg/ml, cat # 407615) were added to the cell cultures for 18 hours at 37° C. Supernatant media from the treated and stimulated cells were removed and total RANK-L proteins measured using RANK-L ELISA (in triplicate) as described by manufacturer (from APOTECH, catalog # APO-54N-016-k101). The resulting protein quantity was compared to that of media (null) treated stimulated cells to determine percent decrease in total RANK-L protein.
# [1] = tested on: MMP9 (type IV collagenase); assay: MMP9 (type IV collagenase) protein expression, keratinocyte/fibroblast co-culture stimulated with IL-1B; type: cell-based; conditions: IL1B 10 ng/ml alone (stimulus); untreated = 1.0
# Description: Keratinocytes and fibroblasts were co-cultured in DMEM containing 0.5% BSA. Co-cultures were exposed to various concentrations of punicalagins (ranging from 0.1%-10%) extracted from pomegranates. Specifically, the ability of the pomegranate extracts to inhibit type IV collagenase protein (matrix metalloproteinase-9/MMP9) expression at concentrations of 1.0 μg/ml, 10 μg/ml, and 100 μg/ml were tested. Following exposure to the pomegranate extracts, the co-culture cells were stimulated with 10 ng/ml of IL-1B for 18 hours. Following stimulation with IL-1B for 18 hours, and MMP9 concentration was determined in the media as shown below in Table 8.
# RANK-L gene expression = RANK-L gene expression (qPCR, IL-1b stimulated MG63 cells); type: cell-based, human; conditions: IL1B 3 ng/ml alone (stimulus)
# Description: Punicalagin test samples are extracted from pomegranates, including from pomegranate peels, skins, fleshy fruit, and seeds using 100% DMSO at 100 mg/ml. Particulate matter in the extraction is not removed. The punicalagin test samples are diluted in MEM without phenol red (estrogenic) and 0.1% FBS to lower background signaling to ten times the final concentrations. Final DMSO concentrations are kept below 0.2% and are kept constant during treatments. DMSO solvent control is used in the untreated group.
# MG63 cells (ATCC # […]), a human-derived osteosarcoma cell line, are plated at 200,000 cells per well in a 12 well plate with phenol red free MEM at 10% FBS. The next day the media is changed to phenol red free MEM at 0.1% FBS. The cells are incubated for four hours and then treated with punicalagin test samples at concentrations of 1, 10, and 100 μg/ml.
# After four hours of treatment, IL-1b (Calbiochem (catalog # 407615), stock solution at 10 μg/ml, cat # 407615) are added to a final concentration of 3 ng/mL. […]
# After 16 hours the cells are lysed and the RNA is extracted from the cells with the RNasy purification kit (Qiagen). RNA is reverse transcribed to cDNA and quantified by qPCR using 2-step qRT-PCR reagents (Invitrogen), and 4 μL of purified RNA. […]
# RANK-L and GAPDH gene expression Ct data are obtained. RNA is quantified with adjustments for GAPDH expression. […]
Compound,Activation of the BMP-2 promoter (in words) (BMP-2 promoter),inhibition at 1 µg/mL (RANK-L) [%],MMP9 expression (fold of untreated) [1],RANK-L Expression (fold increase) (RANK-L gene expression)
"CC(C)Oc1ccc2c(=O)c(-c3ccccc3)coc2c1 [I, 7-isopropoxy isoflavone]",most potent activators,0.8 ± 0.3,–,–
"O=c1c(O)c(-c2ccc(O)c(O)c2)oc2cc(O)cc(O)c12 [Q, Quercetin]",most potent activators,–,–,–
"IL1B: IL-1b (Calbiochem), stimulus of RANK-L and MMP9 expression",–,–,1.65,3.3 ± 0

# From patent publication US20080199546A1, “Anti-resorptive and bone building dietary supplements and methods of use” (priority 2006, published 2008)
